In patent US11198710B2, “Transgenic plant having herbicide resistance” (priority 2016, dated 2021):
Like-named read-outs stand apart in the source and are kept apart here.

Tests used:
TaQ8GTC0 protein = assay: Glutathione conjugation activity of the TaQ8GTC0 protein to VLCFAE-inhibiting herbicides (HPLC); assay type: biochemical, wheat (Triticum aestivum); conditions: 378 ng TaQ8GTC0 protein, 10 μl of 1 mM herbicide in 200 μl, 30° C., 15 minutes; mean ± standard deviation
Experimental: All the VLCFAE-inhibiting herbicides used in this example were added to the reaction mixture as acetone solutions. Conjugation reactions to the VLCFAE-inhibiting herbicides were performed in a reaction mixture (total amount: 200 μl) containing 50 μl of 100 mM potassium phosphate buffer (pH 6.8), 10 μl of 1 mM VLCFAE-inhibiting herbicide, 20 μl of 10 mM reduced glutathione (pH 7.0), 6 μl of the TaQ8GTC0 protein (378 ng in total, PBS buffer solution) and 114 μl of PBS buffer, the reaction was conducted at 30° C. for 15 minutes, the reaction product was filtered through a […], and 50 μl of the filtered solution was injected into HPLC. HPLC analysis conditions were as described below.
Apparatus: Agilent 1100 series
Column: CAPCELL PAK C18 AQ 4.6 mm (i.d.)×250 mm (SHISEIDO)
Mobile phase: acetonitrile/distilled water=5/95 (hold for 5 min)→(4 min)→40/60 (hold for 4 min)→(4 min)→90/10 (hold for 8 min)→(1 min)→5/95 (hold for 4 min) (each solvent containing 0.5% acetic acid)
When the activity of glutathione conjugation to VLCFAE-inhibiting herbicides was analyzed, the amount of glutathione conjugates (GS conjugates) produced was determined based on the amount of VLCFAE-inhibiting herbicides decreased in the reaction solution.
In Example 1, the conjugation activity to cafenstrole was determined via quantification of the compound released by the glutathione conjugation of this herbicide. In addition, peaks of GS conjugate of other herbicides (i.e., metolachlor, alachlor, flufenacet, mefenacet, phentolazamide, indanofan, anilofos, and piperophos) were unknown. When analyzing the glutathione conjugation activities to these herbicides, accordingly, glutathione conjugation reactions were performed to produce GS conjugate in the modified conditions (i.e., more amount of enzyme was added or the conjugation reaction was conducted for longer time) in the beginning to produce glutathione conjugates (GS conjugates), and the peaks were identified with LC/MS.

[1] = tested on: rice plants comprising the TaQ8GTC0 gene introduced therein; assay: Herbicide resistance test of rice plants comprising the TaQ8GTC0 gene, gellan gum medium, plant height; assay type: in vivo; conditions: lineage #3-13; minimal concentration (×1), ×4 and ×16 of Table 4
Experimental: Hoagland's mix and 3 g of gellan gum were suspended in 1 liter of distilled water and thoroughly dissolved therein by heating in a microwave. A fraction of the resultant (15 ml) was injected into a tubular bottle before it was cooled (30 ml was injected into the plate). The herbicide was simultaneously added at the time of injection of the gellan gum medium into the tubular bottle or plate, followed by thorough mixing. Rice hulls were soaked in a 50-fold diluted sodium hypochlorite solution (antiformin) (Wako) for approximately 20 minutes and then thoroughly washed with water. Sterilized seeds were soaked in distilled water and allowed to stand at 27° C. for germination (for approximately 2 days). Germinating seeds were softly planted in the gellan gum medium (plate) containing 0.25 μM BS. These samples, together with a beaker filled with distilled water, were placed in a transparent case, which was then covered with a clear plastic wrap. These samples were grown at 27° C. under fluorescent light illumination (14 hours of a light period and 10 hours of a dark period) for 2 days. Thereafter, rice seeds that were determined to have BS resistance with the use of root elongation as the indicator were transferred to gellan gum media containing pyroxasulfone (tubal bottles) at the final concentrations of 10^−8, 10^−7, 10^−6, and 10^−5M, respectively. Subsequently, these samples, together with a beaker filled with distilled water, were placed in a transparent case, which was then covered with a clear plastic wrap. These samples were grown at 27° C. under fluorescent light illumination (14 hours of a light period and 10 hours of a dark period) for 4 to 5 days, and the plant heights were then measured. Inhibition of shoot growth was determined by comparison to control plants grown in the absence of pyroxasulfone and the concentration for required 50% inhibition (IC50) was determined by the Probit method.
Resistance of rice plants comprising the TaQ8GTC0 gene introduced therein to VLCFAE-inhibiting herbicides was tested in the same manner as with the pyroxasulfone resistance test described above.
FIGS. 7-1 to 7-6 show the results. In FIGS. 7-1 to 7-6, the concentration of 0 μM, the minimal concentration shown in Table 4 (×1), the concentration 4 times higher than the minimal concentration shown in Table 4 (×4), and the concentration 16 times higher than the minimal concentration shown in Table 4 (×16) are shown successively from left to right.

[2] = tested on: wild-type rice plant (Nipponbare); assay: Sensitivity of wild-type rice (Nipponbare) to VLCFAE-inhibiting herbicides, gellan gum medium; assay type: in vivo; conditions: Oryza sativa, 168 h; for minimal effective concentration: read-out: Minimal inhibitory concentration; for IC50: read-out: I50
Experimental: Whether or not a rice plant comprising the TaQ8GTC0 gene introduced therein has VLCFAE-inhibiting herbicide resistance was determined on the basis of a difference in sensitivity of rice between transformant and wild-type. Accordingly, the sensitivity of the wild-type rice plant (Nipponbare) to VLCFAE-inhibiting herbicides used in the glutathione conjugation activity test was examined as described below.
The growth inhibition test was carried out using a gellan gum medium. Hoagland's mix and 3 g of gellan gum were suspended in 1 liter of distilled water and thoroughly dissolved therein by heating in a microwave. A fraction of the resultant (15 ml) was poured in a tubular bottle before it was cooled. When the herbicide (an acetone solution) was to be incorporated thereinto, the herbicide was simultaneously added at the time of filling of the gellan gum medium into the tubular bottle, followed by thorough mixing (final acetone concentration: 0.1%). Rice hulls were soaked in a 50-fold diluted sodium hypochlorite solution (antiformin) (Wako) for approximately 20 minutes and then thoroughly rinsed with water. Sterilized seeds were soaked in distilled water and allowed to stand at 27° C. for germination (for approximately 2 days). Germinating seeds were transferred with the sprout side up to a gellan gum medium containing herbicide (the tubular bottle). Subsequently, these samples, together with a beaker filled with distilled water, were placed in a transparent case, which was then covered with a clear plastic wrap. These samples were grown at 27° C. under fluorescent light illumination (14 hours of a light period and 10 hours of a dark period) for 1 week, the plants were sampled, and the plant heights were then measured. Inhibition of shoot growth was determined by comparison to control plant grown in the absence of herbicide and the concentration required for 50% inhibition (IC50) was determined by the Probit method.

[3] = target: maize-derived GST (GSTI, ZmM16901) (Zea mays, UniProt P12653); conditions: Non-Patent Document 11; cited from earlier work
Chain of maize-derived GST (GSTI, ZmM16901) (P12653 whole entry): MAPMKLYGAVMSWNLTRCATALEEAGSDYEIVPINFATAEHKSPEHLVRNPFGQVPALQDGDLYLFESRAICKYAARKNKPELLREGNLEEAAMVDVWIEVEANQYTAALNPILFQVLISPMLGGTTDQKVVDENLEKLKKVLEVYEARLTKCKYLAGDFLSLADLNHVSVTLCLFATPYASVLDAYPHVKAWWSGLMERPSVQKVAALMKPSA

ZmGST8 (ZmQ9FQD1) = conditions: Non-Patent Document 12; cited from earlier work
TaQ8GTC1-R protein = assay: Glutathione conjugation activity of the TaQ8GTC1-R protein to CDNB (absorbance at 340 nm); assay type: biochemical, wheat; conditions: 30° C., pH 7.6, n=2
Experimental: The glutathione conjugation activity to CDNB was assayed in a reaction mixture (1 ml in total) containing 634 μl of 100 mM potassium phosphate buffer (pH 7.6), 300 μl of 3.3 mM reduced glutathione, 33 μl of a purified enzyme (PBS solution containing 20% glycerol), and 33 μl of 30 mM CDNB (ethanol solution). First, reaction mixture except CDNB was prepared, enzyme reaction was started by the addition of CDNB, and the absorbance at 340 nm was monitored at 30° C. The enzyme activity was calculated using a molar extinction coefficient of glutathione conjugate of CDNB (GS-CDNB) (9.6 mM^−1cm^−1). The amount of GS-CDNB produced in a negative control mixture prepared with the addition of PBS containing 20% glycerol instead of the enzyme (i.e., a non-enzymatic reaction group) was designated as the amount of non-enzymatic production.

[4] = tested on: Arabidopsis thaliana plant comprising the TaQ8GTC0 gene introduced therein; assay: Sensitivity of Arabidopsis thaliana comprising the TaQ8GTC0 gene to herbicides on MS agar medium; assay type: in vivo; conditions: KLB-718 1-1-5; concentrations of Table 5; 22° C., 14 days
Experimental: A medium was prepared as described below, so as to examine the pyroxasulfone resistance of the Arabidopsis thaliana plant comprising the TaQ8GTC0 gene introduced therein. At the outset, the Murashige-Skoog (MS) media (1 bag), thiamin hydrochloride (3 mg), nicotinic acid (5 mg), pyridoxin hydrochloride (0.5 mg), and sucrose (10 g) were added into a 1-liter beaker, a pH was adjusted to 5.7, the volume of the content was adjusted to 1 liter, and 8 g (0.8%) of agar was added. The resultant was autoclaved and cooled to room temperature, and pyroxasulfone (an acetone solution) was added thereto. A 30-ml fraction thereof was fractionated into a No. 2 square plate to prepare an MS medium containing pyroxasulfone at a given concentration.
Pyroxasulfone sensitivity of transgenic Arabidopsis thaliana plants was tested with the use of the medium prepared above as described below. A necessary amount of Arabidopsis thaliana dry seeds was agitated in 70% ethanol for 2 minutes and in hypochlorous acid containing 0.02% Triton-X-100 for 15 minutes, followed by washing with sterile water 10 times. Subsequently, the seeds were suspended in 1 ml of the autoclaved 0.1% agar solution, the suspension was thoroughly mixed to prepare a homogeneous solution, and a total of 30 seeds were each placed on the medium surface. The resultant was sealed with a surgical tape, allowed to stand at 4° C. for 2 days, and then transferred to 22° C. for germination.
On the basis of the concentrations above, sensitivity of the Arabidopsis thaliana plant comprising the TaQ8GTC0 gene introduced therein to VLCFAE-inhibiting herbicides was examined. The results are show in FIGS. 13 and 14. The photographs shown in FIGS. 13 and 14 were taken after the plants were grown at 22° C. for 14 days.

[5] = minimal concentration at which growth of wild-type rice is inhibited
[6] = shoot growth, 1 week, Probit method

Q: With `CCc1cccc(CC)c1N(COC)C(=O)CCl` [Alachlor] as the compound, how does the “Enzyme activity (glutathione conjugation)” value (from here on “Enzyme activity”) (TaQ8GTC0 protein) read?
A: Its value is 1.5 ± 0.1 μmol/mg protein/15 min.

Q: What about the “growth of rice plants comprising the TaQ8GTC0 gene on herbicide medium” value (“growth” for short) [1] of the same compound?
A: Its value is “not affected at the minimal concentration, but the growth thereof was inhibited at the 4-fold concentration”.

Q: What about the minimal effective concentration [2, 5] of the same compound?
A: The minimal effective concentration was 0.5 µM.

Q: And the IC50 [2, 6]?
A: Its IC50 is 332 nM.

Q: And the conjugation activity [3]?
A: The conjugation activity was “high-level conjugation activity”.

Q: What about the conjugation activity (ZmGST8 (ZmQ9FQD1)) of the same compound?
A: Its conjugation activity is “does not exert conjugation activity”.

Q: Which results are given for `COP(=S)(OC)SCC(=O)N(c1ccc(Cl)cc1)C(C)(C)C` [Anilofos]?
A: minimal effective concentration [2, 5]: 0.5 µM; IC50 [2, 6]: 377 nM

Q: For `O=[N+]([O-])c1ccc(Cl)c([N+](=O)[O-])c1` [CDNB, 2,4-dinitrochlorobenzene], which “glutathione conjugation activity to CDNB” value (TaQ8GTC1-R protein) is on record?
A: Its value is 2.17 μmol/min/mg protein.

Q: For `CCN(CC)C(=O)n1cnc(S(=O)(=O)c2c(C)cc(C)cc2C)n1` [Cafenstrole], which “Enzyme activity” value (TaQ8GTC0 protein) is on record?
A: The value was 0.46 ± 0.1 μmol/mg protein/15 min.

Q: And the “growth” value [1]?
A: Its value is “the growth thereof was inhibited at the minimal concentration”.

Q: And the minimal effective concentration [2, 5]?
A: The minimal effective concentration was 0.75 µM.

Q: What about the IC50 [2, 6] of the same compound?
A: Its IC50 is 131 nM.

Q: What does the source list for `CCOc1cc(Cl)c(CS(=O)(=O)C2=NOC(C)(C)C2)cc1Cl` [Fenoxasulfone, 3-[(2,5-dichloro-4-ethoxybenzyl)sulfonyl]-4,5-dihydro-5,5-dimethyl-1,2-oxazole]?
A: Enzyme activity (glutathione conjugation) (TaQ8GTC0 protein): 19.5 ± 8.4 μmol/mg protein/15 min; growth of rice plants comprising the TaQ8GTC0 gene on herbicide medium [1]: the growth thereof was not affected at the maximal test concentration; minimal effective concentration [2, 5]: 0.05 µM; IC50 [2, 6]: 54 nM; sensitivity of the Arabidopsis thaliana plant comprising the TaQ8GTC0 gene to VLCFAE-inhibiting herbicides [4]: strong resistance

Q: With `CCN(C(=O)n1nnn(-c2ccccc2Cl)c1=O)C1CCCCC1` [Fentrazamide] as the compound, how does the “Enzyme activity” value (TaQ8GTC0 protein) read?
A: The value was 0.93 ± 0.2 μmol/mg protein/15 min.

Q: And the “growth” value [1]?
A: The value was “the growth thereof was inhibited at the minimal concentration”.

Q: And the minimal effective concentration [2, 5]?
A: Its minimal effective concentration is 0.5 µM.

Q: What about the IC50 [2, 6] of the same compound?
A: Its IC50 is 46 nM.

Q: With `CC(C)N(C(=O)COc1nnc(C(F)(F)F)s1)c1ccc(F)cc1` [Flufenacet] as the compound, how does the “growth” value [1] read?
A: The value was “the growth thereof was inhibited at the minimal concentration”.

Q: What about the minimal effective concentration [2, 5] of the same compound?
A: The minimal effective concentration was 0.075 µM.

Q: And the IC50 [2, 6]?
A: The IC50 was 42 nM.

Q: Which “growth” value [1] does the source give for `CCC1(CC2(c3cccc(Cl)c3)CO2)C(=O)c2ccccc2C1=O` (stereo not drawn) [Indanofan] here?
A: The value was “the growth thereof was inhibited at the minimal concentration”.

Q: What about the minimal effective concentration [2, 5] of the same compound?
A: Its minimal effective concentration is 0.25 µM.

Q: And the IC50 [2, 6]?
A: Its IC50 is 61 nM.

Q: For `CN(C(=O)COc1nc2ccccc2s1)c1ccccc1` [Mefenacet], which “growth” value [1] is on record?
A: Its value is “not affected at the minimal concentration, but the growth thereof was inhibited at the 4-fold concentration”.

Q: And the minimal effective concentration [2, 5]?
A: The minimal effective concentration was 0.75 µM.

Q: And the IC50 [2, 6]?
A: Its IC50 is 388 nM.

Q: For `CCc1cccc(C)c1N(C(=O)CCl)C(C)COC` (stereo not drawn) [Metolachlor], which “Enzyme activity” value (TaQ8GTC0 protein) is on record?
A: Its value is 2.2 ± 0.8 μmol/mg protein/15 min.

Q: What about the “growth” value [1] of the same compound?
A: Its value is “not affected at the minimal concentration, but the growth thereof was inhibited at the 4-fold concentration”.

Q: And the minimal effective concentration [2, 5]?
A: Its minimal effective concentration is 0.75 µM.

Q: What about the IC50 [2, 6] of the same compound?
A: Its IC50 is 636 nM.

Q: What about the conjugation activity [3] of the same compound?
A: Its conjugation activity is “does not exert conjugation activity”.

Q: Which results are given for `CCCOP(=S)(OCCC)SCC(=O)N1CCCCC1C` (stereo not drawn) [Piperophos]?
A: growth of rice plants comprising the TaQ8GTC0 gene on herbicide medium [1]: the growth thereof was inhibited at the minimal concentration; IC50 [2]: 1310 nM; minimal effective concentration [2]: 2.5 µM
